Consider one molecule from US20230339878A1, “SLC26A3 INHIBITORS AND USE THEREOF” (THE REGENTS OF THE UNIVERSITY OF CALIFORNIA, priority 2018, published 2023).

“Also recorded” adds a separate entry of the source.

In experiment [1] the test system is mouse mid-jejunal closed loops. Put plainly: Closed mid-jejunal loop fluid absorption in mice. Particulars: 10 µM intraluminal, 30 min. It is filed as in vivo. The protocol: Female CD1 mice (age 8-10 weeks) were given free access to Pedialyte (per liter: Na^+ 45 mEq, Cl^- 35 mEq, K^+ 20 mEq, dextrose 25 g; Abbott, Abbot Park, IL) but not solid food for 48 h before experiments. Mice were treated with 500 µL mineral oil once a day rectally (last dose 12 h before surgeries) during this period to evacuate the colon. Closed intestinal loops were isolated as described. Mice were anesthetized with isoflurane and body temperature was maintained during surgery at 36-38° C. using a heating pad. A small abdominal incision was made to expose the distal colon, and one closed distal colonic loop (length 1.5-2 cm) was isolated with sutures in each mouse. Loops were injected with 100 µL phosphate-buffered saline (PBS, pH: 7.4, in mM: 137 NaCl, 2.7 KCl, 8 Na2HPO4, 1.8 KH2PO4, 1 CaCl2, 0.5 MgCl2) without and with 10 µM Compound A1 and/or 10 µM tenapanor (MedChemExpress, Monmouth Junction, NJ). The abdominal incision was closed with sutures, and mice were allowed to recover from anesthesia. Colonic loops were removed at 0 and 60 min (in separate mice) and loop length and weight were measured to quantify fluid absorption. Luminal fluid was emptied with a syringe and pH was measured immediately using AB15 pH Meter (Thermo Fisher Scientific, South San Francisco, CA). In separate studies, mid-jejunal loops (length 2-3 cm, 3-4 loops per mouse) were isolated as described above, injected with 100 µL PBS without or with 10 µM Compound A1 and/or 10 µM tenapanor, and excised at 0 and 30 min to measure loop length and weight.

For another experiment, the target named is T1, PAT-1 (slc26a6) (Mus musculus, UniProt Q8CIW6).
T1 construct: full-length slc26a6 was subcloned into pLVX-YFP-T2A-Puro as an EcoRI to XbaI fragment; host or cells: HEK293 cells infected with lentivirus, puromycin selected
T1 sequence (Q8CIW6 1-758): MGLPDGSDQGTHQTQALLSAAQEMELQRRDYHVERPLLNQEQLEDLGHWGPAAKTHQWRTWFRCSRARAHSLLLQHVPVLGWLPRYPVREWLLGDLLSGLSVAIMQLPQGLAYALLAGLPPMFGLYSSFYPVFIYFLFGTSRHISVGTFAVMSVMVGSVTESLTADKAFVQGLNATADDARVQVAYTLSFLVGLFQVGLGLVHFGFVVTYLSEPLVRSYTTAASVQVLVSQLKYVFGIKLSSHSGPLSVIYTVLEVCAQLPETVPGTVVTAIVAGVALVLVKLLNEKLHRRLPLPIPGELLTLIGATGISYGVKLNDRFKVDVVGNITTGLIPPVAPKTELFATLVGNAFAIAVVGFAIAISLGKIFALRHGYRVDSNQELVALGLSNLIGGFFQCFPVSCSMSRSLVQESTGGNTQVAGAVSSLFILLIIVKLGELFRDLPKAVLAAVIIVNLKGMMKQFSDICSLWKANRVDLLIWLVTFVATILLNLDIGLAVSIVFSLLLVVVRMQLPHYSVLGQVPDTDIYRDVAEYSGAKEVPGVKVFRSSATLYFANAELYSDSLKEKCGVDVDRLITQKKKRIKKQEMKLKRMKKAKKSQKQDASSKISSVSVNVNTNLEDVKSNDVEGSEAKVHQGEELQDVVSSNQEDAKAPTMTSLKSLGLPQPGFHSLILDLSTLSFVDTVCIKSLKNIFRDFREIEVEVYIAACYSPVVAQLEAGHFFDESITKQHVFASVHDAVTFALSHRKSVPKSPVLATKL
Put plainly: Selectivity: slc26a6 Cl-/I- exchange in HEK cells. It is filed as cell-based, murine. Particulars: 10 µM.

With `Cc1c(CC(=O)O)c(=O)oc2c(C)c(OCc3cccc(Br)c3)ccc12` [Compound A1], in experiment [1], the “loop weight/length ratio (fluid absorption), mid-jejunal loops” value was “did not produce significant changes; also recorded: not in jejunal loops” and the “luminal fluid pH, mid-jejunal loops” value is listed as “did not alter acidification”. Moreover, the “effect on Cl-/I- exchange activity of PAT-1 (slc26a6)” value at PAT-1 (slc26a6) is recorded as “did not alter; also recorded: did not inhibit; also recorded: differences not significant”.
